Patent US4482566A, “Substituted aminoalkylbenzene type lower acylamides” (Teikoku Hormone Mfg. Co., Ltd., priority 1979, dated 1984)

Legend:
[1] = system: gastric acid secretion induced by histamine; assay: Inhibitory action against the gastric acid secretion induced by histamine (perfused stomach, anesthetized rats); type: in vivo; conditions: Rattus norvegicus, 1 h; male Donryu rats, urethane anesthesia; compound injected before histamine dihydrochloride 5 mg/kg i.v.; acid output during 60 min; read-out: ED50, dose to inhibit 50% of acid output of the control
Description: Inhibitory action of a test compound against the gastric acid secretion induced by histamine was determined according to the method of Ghosh and Schild (M. N. Ghosh and H. O. Schild: Br. J. Pharmacol. 13, 54, 1958) with some modifications. Male Donryu rats weighing 200±10 g were deprived of food for 24 hr prior to the experiments, with water ad lib. Under the anesthesia with 1.2 g/kg of subcutaneous urethane, trachea and cervical vein were cannulated. With midline opening, the duodenum immediately below the junction with pylorus was incised and after the stomach was flashed with saline for several times, the polyethylene tube was inserted into the pylorus through the incision, and ligated with surrounding tissues keeping the blood vessels intact. The polyvinyl tube was inserted into the mouth up to the forestomach through the esophagus and ligated at the cervical level. Saline solution kept at 35° C. was perfused through the polyvinyl tube at the rate of 1 ml/min, and the perfusate was collected through the polyethylene tube of the pylorus. The perfusate was collected for 30 min and was titrated by 0.01N NaOH with phenolphthalein as an indicator to obtain a total acid output(mEq). Subsequently, the perfusate was collected for every 30 min. After the acid output became constant, the stomach was perfused for further 60 min. After that, in the control group, 0.1 ml of saline per 100 g of body weight was intravenously injected, 10 min later 5 mg/kg of histamine dihydrochloride was injected intravenously. The perfusate for 60 min after histamine injection was collected and determined the acidity. The amount of acid output during 60 min after histamine injection subtracted that for 60 min before histamine was regarded as the acid output response to histamine. In the test groups, following the injection of three compounds (A), (B) and (C) instead of saline, 5 mg/kg of histamine dihydrochloride was injected and acid output was determined. Decreased ratio of the acid output to the control was calculated as the response to the test compound. […]

Acute toxicity = conditions: mouse, in vivo, po, SLC-ddY male mice of aging 4 weeks
Description: To test the acute toxicity of each compound (A), (B) and (C), LD50 was determined using SLC-ddY male mice of aging 4 weeks.

histamine H2 receptor = biological target: T1, histamine H2 receptor (Cavia porcellus, UniProt P47747); assay: Blocking action on histamine H2 receptor in vitro (positive chronotropic effect of histamine in spontaneously beating atria); conditions: negative logarithm of concentration required to shift dose-response of histamine to the right by 2-fold; guinea pig atria; read-out: pA2 (converted)
T1 construct: spontaneously beating atria of guinea pig in vitro; from tissue; host or cells: spontaneously beating guinea pig atria
T1 sequence (P47747 whole entry): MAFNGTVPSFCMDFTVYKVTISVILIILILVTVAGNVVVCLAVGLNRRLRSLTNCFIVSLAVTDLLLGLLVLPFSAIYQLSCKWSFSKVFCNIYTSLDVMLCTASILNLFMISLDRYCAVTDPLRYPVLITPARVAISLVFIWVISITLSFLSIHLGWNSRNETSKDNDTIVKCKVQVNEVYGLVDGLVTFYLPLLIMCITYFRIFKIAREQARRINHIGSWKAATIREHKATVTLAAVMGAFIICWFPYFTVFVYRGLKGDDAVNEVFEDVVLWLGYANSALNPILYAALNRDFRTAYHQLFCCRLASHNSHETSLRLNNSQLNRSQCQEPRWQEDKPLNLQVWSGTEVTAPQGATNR
Description: Histamine H2 receptor blocking activity of the compound was determined by obtaining the dose-response relationship of the positive chronotropic effect of histamine in spontaneously beating atria of guinea pig in vitro, in the absence and in the presence of a test compound. […] E. J. Ariens. Molecular Pharmacology, vol. 1, 153-156 (1964), Academic Press, New York).

Row | Compound | ED50 [1] | LD50 (Acute toxicity) | Kb (histamine H2 receptor)
1 | O=CNCCCOc1cccc(CN2CCCC2)c1 [compound 6] | 0.84 mg/kg | > 1000 mg/kg | 
2 | CC(=O)NCCCOc1cccc(CN2CCCC2)c1 [compound 4, 3-(3-acetamidopropoxy)-1-(1-pyrrolidinylmethyl)benzene] | 1.65 mg/kg | > 1000 mg/kg | 
3 | O=CNCCCOc1cccc(CN2CCCC2)c1 [Example 6] |  |  | 170 nM
4 | COC(=O)c1ccc(C(=O)NCCCOc2cccc(CN3CCCC3)c2)cc1 [Example 5] |  |  | 81.3 nM
5 | O=C(NCCCOc1cccc(CN2CCCC2)c1)c1ccccc1 [Example 2] |  |  | 191 nM
6 | O=C(NCCCOc1cccc(CN2CCCC2)c1)c1cccnc1 [Example 1] |  |  | 129 nM
7 | O=C(NCCCOc1cccc(CN2CCCC2)c1)c1cccnc1 [A] | 1.25 mg/kg | > 1000 mg/kg | 
8 | O=C(NCCCOc1cccc(CN2CCCC2)c1)c1cc(-c2ccccc2)on1 [Example 8] |  |  | 186 nM
9 | O=C(NCCCOc1cccc(CN2CCCC2)c1)c1ccc([N+](=O)[O-])cc1 [Example 7] |  |  | 100 nM
10 | CC(=O)NCCCOc1cccc(CN2CCCC2)c1 [Example 4] |  |  | 195 nM
11 | O=C(NCCCOc1cccc(CN2CCCC2)c1)c1cccs1 [Example 3] |  |  | 138 nM
